Test results taken from ChEMBL document CHEMBL4715882, “Evaluation of pyrrolidine-based analog of jaspine B as potential SphK1 inhibitors against rheumatoid arthritis” (Bioorg Med Chem Lett, 2021).
Each block holds one compound with its values, some of them ahead of it. Activity calls are given as the source filed them. No cut-off for these calls is given here.

Assays:
[1] = Antiinflammatory activity against LPS-induced HFLS-RA cells; format: functional, cell-based, Homo sapiens
Rattus norvegicus [2] = experiment: Antiinflammatory activity against CFA-induced rheumatoid arthritis Wistar rat model assessed as decrease in spleen index at 3 mg/kg, ig measured after 28 days; format: functional, organism-based; settings: time 28.0 day
Rattus norvegicus [3] = experiment: Antiinflammatory activity against CFA-induced rheumatoid arthritis Wistar rat model assessed as decrease in IL-1beta level at 3 mg/kg, ig measured after 28 days; format: functional, organism-based; settings: time 28.0 day
Rattus norvegicus [4] = experiment: Antiinflammatory activity against CFA-induced rheumatoid arthritis Wistar rat model assessed as decrease in TNFalpha level at 3 mg/kg, ig measured after 28 days; format: functional, organism-based; settings: time 28.0 day
Rattus norvegicus [5] = experiment: Antiarthritic activity in CFA-induced rheumatoid arthritis Wistar rat model assessed as reduction in foot swelling at 3 mg/kg, ig measured after 21 to 28 days; format: functional, organism-based; settings: time 21-28 day
Rattus norvegicus [6] = experiment: Antiarthritic activity in CFA-induced rheumatoid arthritis Wistar rat model assessed as increase in weight at 3 mg/kg, ig measured after 14 to 28 days; format: functional, organism-based; settings: time 14-28 day
Rattus norvegicus [7] = experiment: Antiinflammatory activity against CFA-induced rheumatoid arthritis Wistar rat model assessed as decrease in synovial hyperplasia at 3 mg/kg, ig after 28 days; format: functional, organism-based; settings: time 28.0 day
Rattus norvegicus [8] = experiment: Antiinflammatory activity against CFA-induced rheumatoid arthritis Wistar rat model assessed as decrease in cartilage damage at 3 mg/kg, ig after 28 days; format: functional, organism-based; settings: time 28.0 day
Rattus norvegicus [9] = experiment: Antiinflammatory activity against CFA-induced rheumatoid arthritis Wistar rat model assessed as decrease in cell infiltration at 3 mg/kg, ig after 28 days; format: functional, organism-based; settings: time 28.0 day
Rattus norvegicus [10] = experiment: Antiarthritic activity in CFA-induced rheumatoid arthritis Wistar rat model assessed as reduction in arthritis index at 3 mg/kg, ig for 28 days; format: functional, organism-based; settings: time 28.0 day
Rattus norvegicus [11] = experiment: Antiinflammatory activity against CFA-induced rheumatoid arthritis Wistar rat model assessed as decrease in IL6 level at 3 mg/kg, ig measured after 28 days; format: functional, organism-based; settings: time 28.0 day
Rattus norvegicus [12] = experiment: Antiinflammatory activity against CFA-induced rheumatoid arthritis Wistar rat model assessed as decrease in cartilage damage at 30 mg/kg, ig after 28 days; format: functional, organism-based; settings: time 28.0 day
Rattus norvegicus [13] = experiment: Antiinflammatory activity against CFA-induced rheumatoid arthritis Wistar rat model assessed as decrease in IL6 level at 30 mg/kg, ig measured after 28 days; format: functional, organism-based; settings: time 28.0 day
Rattus norvegicus [14] = experiment: Antiarthritic activity in CFA-induced rheumatoid arthritis Wistar rat model assessed as reduction in arthritis index at 30 mg/kg, ig for 28 days; format: functional, organism-based; settings: time 28.0 day
HFLS-RA [15] = experiment: Antiinflammatory activity against LPS-induced HFLS-RA cells assessed as reduction in IL-6 expression; format: functional, cell-based; settings: Homo sapiens, dose 5-20 µM
Rattus norvegicus [16] = experiment: Antiinflammatory activity against CFA-induced rheumatoid arthritis Wistar rat model assessed as decrease in cell infiltration at 30 mg/kg, ig after 28 days; format: functional, organism-based; settings: time 28.0 day
Rattus norvegicus [17] = experiment: Antiarthritic activity in CFA-induced rheumatoid arthritis Wistar rat model assessed as reduction in foot swelling at 30 mg/kg, ig measured after 21 to 28 days; format: functional, organism-based; settings: time 21-28 day
Rattus norvegicus [18] = experiment: Antiinflammatory activity against CFA-induced rheumatoid arthritis Wistar rat model assessed as decrease in spleen index at 30 mg/kg, ig measured after 28 days; format: functional, organism-based; settings: time 28.0 day
Rattus norvegicus [19] = experiment: Antiinflammatory activity against CFA-induced rheumatoid arthritis Wistar rat model assessed as decrease in synovial hyperplasia at 30 mg/kg, ig after 28 days; format: functional, organism-based; settings: time 28.0 day
Rattus norvegicus [20] = experiment: Antiinflammatory activity against CFA-induced rheumatoid arthritis Wistar rat model assessed as decrease in TNFalpha level at 30 mg/kg, ig measured after 28 days; format: functional, organism-based; settings: time 28.0 day
HFLS-RA [21] = experiment: Antiinflammatory activity against LPS-induced HFLS-RA cells assessed as reduction in IL-1beta expression; format: functional, cell-based; settings: Homo sapiens, dose 5-20 µM
HFLS-RA [22] = experiment: Antiinflammatory activity against LPS-induced HFLS-RA cells assessed as reduction in TNF-alpha expression; format: functional, cell-based; settings: Homo sapiens, dose 5-20 µM
Rattus norvegicus [23] = experiment: Antiinflammatory activity against CFA-induced rheumatoid arthritis Wistar rat model assessed as decrease in IL-1beta level at 30 mg/kg, ig measured after 28 days; format: functional, organism-based; settings: time 28.0 day
HFLS-RA [24] = experiment: Antiinflammatory activity against LPS-induced HFLS-RA cells assessed as reduction in IL-1alpha expression; format: functional, cell-based; settings: Homo sapiens, dose 5-20 µM
Rattus norvegicus [25] = experiment: Antiinflammatory activity against CFA-induced rheumatoid arthritis Wistar rat model assessed as decrease in paw swelling at 30 mg/kg, ig after 28 days; format: functional, organism-based; settings: time 28.0 day
Rattus norvegicus [26] = experiment: Antiarthritic activity in CFA-induced rheumatoid arthritis Wistar rat model assessed as increase in weight at 30 mg/kg, ig measured after 14 to 28 days; format: functional, organism-based; settings: time 14-28 day
Sphingosine kinase 2 = biological target: T1, Sphingosine kinase 2 (Homo sapiens, UniProt Q9NRA0); experiment: Inhibition of SphK2 (unknown origin)
T1 sequence (Q9NRA0 whole entry): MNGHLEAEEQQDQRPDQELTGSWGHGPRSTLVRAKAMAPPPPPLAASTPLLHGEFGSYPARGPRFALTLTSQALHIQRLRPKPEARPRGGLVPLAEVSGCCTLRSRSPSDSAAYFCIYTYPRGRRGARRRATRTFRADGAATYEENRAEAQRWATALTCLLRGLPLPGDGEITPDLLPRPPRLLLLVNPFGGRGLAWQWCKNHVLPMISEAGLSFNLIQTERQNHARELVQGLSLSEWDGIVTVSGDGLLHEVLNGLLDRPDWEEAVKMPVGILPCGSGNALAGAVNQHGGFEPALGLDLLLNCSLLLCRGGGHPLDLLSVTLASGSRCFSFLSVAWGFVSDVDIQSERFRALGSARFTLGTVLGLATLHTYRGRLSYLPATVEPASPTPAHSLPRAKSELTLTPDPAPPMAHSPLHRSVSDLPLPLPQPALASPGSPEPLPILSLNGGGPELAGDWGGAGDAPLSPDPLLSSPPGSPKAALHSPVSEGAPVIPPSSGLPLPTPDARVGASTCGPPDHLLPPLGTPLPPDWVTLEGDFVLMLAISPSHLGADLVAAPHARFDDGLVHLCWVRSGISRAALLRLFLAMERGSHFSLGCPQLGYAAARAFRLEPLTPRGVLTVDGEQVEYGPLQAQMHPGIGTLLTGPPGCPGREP

Sphingosine kinase 1 = Sphingosine kinase 1 (Homo sapiens, UniProt Q9NYA1); experiment: Inhibition of SphK1 (unknown origin)
Chain of Sphingosine kinase 1 (Q9NYA1 whole entry): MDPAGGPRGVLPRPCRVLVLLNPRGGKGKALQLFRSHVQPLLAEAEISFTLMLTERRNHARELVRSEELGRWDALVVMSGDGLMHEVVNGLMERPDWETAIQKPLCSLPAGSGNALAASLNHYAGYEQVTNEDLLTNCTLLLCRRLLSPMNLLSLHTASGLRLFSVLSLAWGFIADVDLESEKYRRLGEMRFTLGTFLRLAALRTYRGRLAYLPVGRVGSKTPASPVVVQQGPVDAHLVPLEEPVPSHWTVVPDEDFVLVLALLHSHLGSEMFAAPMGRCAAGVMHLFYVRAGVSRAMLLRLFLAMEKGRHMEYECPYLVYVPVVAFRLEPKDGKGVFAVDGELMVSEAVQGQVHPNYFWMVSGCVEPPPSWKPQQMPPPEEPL

Compound: N[C@H]1CN[C@H](CCCCCCCCCCOO)[C@H]1O
IC50 [1]: 116 µM

Compound: Cc1ccc(-c2cc(C(F)(F)F)nn2-c2ccc(S(N)(=O)=O)cc2)cc1
Activity (Rattus norvegicus [2]): Active
Activity (Rattus norvegicus [3]): Active
Activity (Rattus norvegicus [4]): Active
Activity (Rattus norvegicus [5]): Active
Activity (Rattus norvegicus [6]): Active
Activity (Rattus norvegicus [7]): Active
Activity (Rattus norvegicus [8]): Active
Activity (Rattus norvegicus [9]): Active
Activity (Rattus norvegicus [10]): Active
Activity (Rattus norvegicus [11]): Active

IC50 [1]: 99.7 µM
Compound: N[C@H]1CN[C@H](CCCCCCCCCOCC2CCCCC2)[C@H]1O

IC50 [1]: 46.3 µM
Compound: N[C@H]1CN[C@H](CCCCCCCCCCCOCC2CCCCC2)[C@H]1O

IC50 [1]: 94.8 µM
Compound: CCCCCCCCCCCC[C@H]1NC[C@H](N)[C@@H]1O

IC50 [1]: 11.4 µM
Compound: Cc1c(F)c(F)c(COCCCCCCCCCC[C@H]2NC[C@H](N)[C@@H]2O)c(F)c1F

Compound: CCCCCCCCCCCCCC[C@H]1NC[C@H](N)[C@@H]1O [listing 1 of 3 here]
Activity (Rattus norvegicus [12]): Active
Activity (Rattus norvegicus [13]): Active
Activity (Rattus norvegicus [14]): Active
Activity (HFLS-RA [15]): Dose-dependent effect
Activity (Rattus norvegicus [16]): Active
Activity (Rattus norvegicus [17]): Active
Activity (Rattus norvegicus [18]): Active
Activity (Rattus norvegicus [19]): Active
Activity (Rattus norvegicus [20]): Active
Activity (HFLS-RA [21]): Dose-dependent effect
Activity (HFLS-RA [22]): Dose-dependent effect
Activity (Rattus norvegicus [23]): Active
Activity (HFLS-RA [24]): Dose-dependent effect
Activity (Rattus norvegicus [25]): Active
Activity (Rattus norvegicus [26]): Active

IC50 [1]: 18.1 µM
Compound: CC(C)COCCCCCCCCCC[C@H]1NC[C@H](N)[C@@H]1O

IC50 [1]: 18.9 µM
Compound: CC(OCCCCCCCCCC[C@H]1NC[C@H](N)[C@@H]1O)c1ccc(F)cc1 (some centres not stated)

IC50 (Sphingosine kinase 2): > 100 µM
IC50 [1]: 8.64 µM
IC50 (Sphingosine kinase 1): 8.89 µM
Compound: CCCCCCCCCCCCCC[C@H]1NC[C@H](N)[C@@H]1O [listing 2 of 3 here]

IC50 [1]: 10.7 µM
Compound: N[C@H]1CN[C@H](CCCCCCCCCCOCc2ccc(F)cc2)[C@H]1O

IC50 [1]: 10.2 µM
Compound: N#Cc1ccc(COCCCCCCCCCC[C@H]2NC[C@H](N)[C@@H]2O)cc1

IC50 [1]: 51.2 µM
Compound: N[C@H]1CN[C@H](CCCCCCCCCCOCC2CCCCC2)[C@H]1O

IC50 (Sphingosine kinase 2): > 100 µM
IC50 [1]: 10.7 µM
IC50 (Sphingosine kinase 1): > 100 µM
Compound: CCCCCCCCCCCCCC[C@H]1NC[C@H](N)[C@@H]1O [listing 3 of 3 here]

IC50 [1]: 14.3 µM
Compound: COc1ccc(COCCCCCCCCCC[C@H]2NC[C@H](N)[C@@H]2O)c(OC)c1

IC50 [1]: 5.48 µM
Compound: CN(Cc1cnc2nc(N)nc(N)c2n1)c1ccc(C(=O)N[C@@H](CCC(=O)O)C(=O)O)cc1 [METHOTREXATE]

IC50 [1]: 15.1 µM
Compound: N[C@H]1CN[C@H](CCCCCCCCCOCc2ccccc2)[C@H]1O

IC50 [1]: 11.2 µM
Compound: N[C@H]1CN[C@H](CCCCCCCCCCCOC2CCOCC2)[C@H]1O

IC50 [1]: 24.8 µM
Compound: CC(OCCCCCCCCCC[C@H]1NC[C@H](N)[C@@H]1O)c1ccccc1 (some centres not stated)

IC50 [1]: 19.6 µM
Compound: N[C@H]1CN[C@H](CCCCCCCCCCOCc2ccc(C(F)(F)F)cc2)[C@H]1O
